Where “and” joins values, the source holds several entries; their conditions need not be identical. Identical values can stand only once. Toxic doses and inconclusive results are not listed. Rule for the calls: active = survival T/C of 150% or more; inactive = T/C below 125% in these data.
Tested on: P388 leukemia ip, CD2F1 mice, survival T/C
Test: NCI In Vivo Anticancer Drug Screen. Data for tumor model P388 Leukemia (intraperitoneal) in CD2F1 (CDF1) mice
Conditions: endpoint: median survival time, higher = longer survival
Summary of the method: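 Mice carrying the transplanted tumor received test compound or vehicle. Survival was recorded in each group, and the value is the treated-group measurement divided by that of the vehicle-treated control group.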

[1] = dose: 100.0 mg/kg/injection, schedule: Q04DX002 (ip), vehicle: Klucel (hydroxypropylcellulose) (HPC)
[2] = dose: 50.0 mg/kg/injection, schedule: Q01DX009 (ip), vehicle: Klucel (hydroxypropylcellulose) (HPC)
[3] = dose: 100.0 mg/kg/injection, schedule: Q01DX009 (ip), vehicle: Klucel (hydroxypropylcellulose) (HPC)
[4] = dose: 200.0 mg/kg/injection, schedule: Q01DX009 (ip), vehicle: Klucel (hydroxypropylcellulose) (HPC)
[5] = dose: 100.0 mg/kg/injection, schedule: Q04DX002 (ip), vehicle: saline with Tween-80
[6] = dose: 200.0 mg/kg/injection, schedule: Q04DX002 (ip), vehicle: saline with Tween-80
[7] = dose: 400.0 mg/kg/injection, schedule: Q04DX002 (ip), vehicle: saline with Tween-80
[8] = dose: 50.0 mg/kg/injection, schedule: Q04DX003 (ip), vehicle: saline with Tween-80
[9] = dose: 50.0 mg/kg/injection, schedule: Q01DX005 (ip), vehicle: saline
[10] = dose: 100.0 mg/kg/injection, schedule: Q01DX005 (ip), vehicle: saline
[11] = dose: 200.0 mg/kg/injection, schedule: Q01DX005 (ip), vehicle: saline
[12] = dose: 6.25 mg/kg/injection, schedule: Q01DX009 (ip), vehicle: saline
[13] = dose: 12.5 mg/kg/injection, schedule: Q01DX009 (ip), vehicle: saline
[14] = dose: 50.0 mg/kg/injection, schedule: Q01DX009 (ip), vehicle: saline with Tween-80
[15] = dose: 100.0 mg/kg/injection, schedule: Q01DX009 (ip), vehicle: saline with Tween-80
[16] = dose: 200.0 mg/kg/injection, schedule: Q01DX009 (ip), vehicle: saline with Tween-80
[17] = dose: 50.0 mg/kg/injection, schedule: Q01DX009 (ip), vehicle: saline
[18] = dose: 100.0 mg/kg/injection, schedule: Q01DX009 (ip), vehicle: saline
[19] = dose: 200.0 mg/kg/injection, schedule: Q01DX009 (ip), vehicle: saline

Measured: T/C

COc1cc2c(cc1O)Cc1c-2[n+](C)cc2cc(OC)c(OC)cc12
inactive: dose: 6.25 mg/kg/injection, schedule: Q01DX005 (ip), vehicle: Klucel (hydroxypropylcellulose) (HPC) 117 % of control | dose: 12.5 mg/kg/injection, schedule: Q01DX005 (ip), vehicle: Klucel (hydroxypropylcellulose) (HPC) 109 % of control | dose: 25.0 mg/kg/injection, schedule: Q01DX005 (ip), vehicle: Klucel (hydroxypropylcellulose) (HPC) 115 % of control | [1] 119 % of control

CC12CCC3(CC(=O)C1CCC2O)OCCO3 (stereo not given)
inactive: [2] 107 % of control | [3] 103 % of control | [4] 116 % of control

N#Cc1ccccc1N=NNc1ccc(-c2nc(N)nc(N)n2)cc1
inactive: dose: 50.0 mg/kg/injection, schedule: Q04DX003 (ip), vehicle: saline 100 % of control | dose: 100.0 mg/kg/injection, schedule: Q04DX003 (ip), vehicle: saline 95 % of control | dose: 200.0 mg/kg/injection, schedule: Q04DX003 (ip), vehicle: saline 100 % of control

COC(=O)c1c(-c2ccc3c(c2)OCO3)c(C=O)n(C)c1C
inactive: [5] 90 % of control | [6] 87 % of control | [7] 89 % of control

COc1cccc2c1C(=O)c1c(O)c3c(c(O)c1C2=O)CC(O)(C(=O)COC1CC(OC(C)=O)C(OC(C)=O)C(C)O1)CC3OC1CC(OC(C)=O)C(OC(C)=O)C(C)O1 (stereo not given)
inactive: dose: 3.13 mg/kg/injection, schedule: Q04DX003 (ip), vehicle: saline with Tween-80 100 % of control | dose: 6.25 mg/kg/injection, schedule: Q04DX003 (ip), vehicle: saline with Tween-80 100 % of control | dose: 12.5 mg/kg/injection, schedule: Q04DX003 (ip), vehicle: saline with Tween-80 100 % of control | dose: 25.0 mg/kg/injection, schedule: Q04DX003 (ip), vehicle: saline with Tween-80 95 % of control | [8] 100 % of control

CCOP(=O)(O)C1CCCC(C)[N-]1.CCOP(=O)(O)C1CCCC(C)[N-]1.CCOP(=O)(O)C1CCCC(C)[N-]1.[Cr+3] (stereo not given)
inactive: dose: 100.0 mg/kg/injection, schedule: Q04DX003 (ip), vehicle: Klucel (hydroxypropylcellulose) (HPC) 100 % of control | dose: 200.0 mg/kg/injection, schedule: Q04DX003 (ip), vehicle: Klucel (hydroxypropylcellulose) (HPC) 92 % of control

O=c1oc2ccccc2c(O)c1C(c1ccc2c(c1)OCO2)N1CCOCC1 (stereo not given)
inactive: [9] 113 % of control | [10] 110 % of control | [11] 103 % of control

CCCCCCC(=O)/C=C/c1ccc(OCOC)cc1
inactive: dose: 50.0 mg/kg/injection, schedule: Q01DX009 (ip), vehicle: saline + alcohol 97 % of control | dose: 100.0 mg/kg/injection, schedule: Q01DX009 (ip), vehicle: saline + alcohol 121 % of control | dose: 200.0 mg/kg/injection, schedule: Q01DX009 (ip), vehicle: saline + alcohol 100 % of control

Cc1cc(C)c2c(c1)/C(=C/C(=O)c1ccccc1)C(=O)N2
inactive: [2] 100 % of control | [3] 95 % of control | [4] 100 % of control

CC[n+]1ccc(/C=C\c2c(Cl)cccc2Cl)cc1
inactive: [12] 96 % of control | [13] 104 % of control | dose: 25.0 mg/kg/injection, schedule: Q01DX009 (ip), vehicle: saline 106 % of control

CN(C)c1cc(-c2ccccc2)oc(=O)c1Cl
inactive: [14] 99 % of control | [15] 100 % of control

COC(=O)C(Cc1ccc(O)cc1)NS(=O)(=O)Cc1ccccc1 (stereo not given)
inactive: [14] 107 % of control | [15] 96 % of control | [16] 99 % of control

OCCOc1ccc2ccccc2c1-c1c(OCCO)ccc2ccccc12
inactive: [8] 100 % of control | dose: 100.0 mg/kg/injection, schedule: Q04DX003 (ip), vehicle: saline with Tween-80 100 % of control | dose: 200.0 mg/kg/injection, schedule: Q04DX003 (ip), vehicle: saline with Tween-80 100 % of control | dose: 400.0 mg/kg/injection, schedule: Q04DX003 (ip), vehicle: saline with Tween-80 100 % of control

CCn1c2[n+](c3ccccc31)CCC2
inactive: dose: 3.12 mg/kg/injection, schedule: Q01DX009 (ip), vehicle: saline 114 % of control | [12] 113 % of control | [13] 114 % of control

C/C(=C\c1c[nH]c2ccccc12)[N+](=O)[O-]
inactive: [15] 109 % of control | [16] 104 % of control | dose: 400.0 mg/kg/injection, schedule: Q01DX009 (ip), vehicle: saline with Tween-80 124 % of control

Cc1ccc(-c2cn3ccsc3n2)cc1
inactive: dose: 100.0 mg/kg/injection, schedule: Q01DX001 (ip), vehicle: Klucel (hydroxypropylcellulose) (HPC) 95 % of control | dose: 200.0 mg/kg/injection, schedule: Q01DX001 (ip), vehicle: Klucel (hydroxypropylcellulose) (HPC) 97 % of control

Nc1cccc(CC(=O)Nc2ccccc2)c1
inactive: [1] 100 % of control | dose: 200.0 mg/kg/injection, schedule: Q04DX002 (ip), vehicle: Klucel (hydroxypropylcellulose) (HPC) 97 % of control

COCC(O)COC
inactive: [17] 94 % of control | [18] 96 % of control | [19] 87 % of control

COC(=O)C1=COC(C)C2CN3CCc4c([nH]c5cc(OC)c(OC)cc45)C3CC12 (stereo not given)
inactive: dose: 50.0 mg/kg/injection, schedule: Q01DX005 (ip), vehicle: saline with Tween-80 101 % of control | dose: 100.0 mg/kg/injection, schedule: Q01DX005 (ip), vehicle: saline with Tween-80 102 % of control | dose: 200.0 mg/kg/injection, schedule: Q01DX005 (ip), vehicle: saline with Tween-80 115 % of control

COC[n+]1cccc(C2CCC[N+]2(C)C)c1 (stereo not given)
inactive: [17] 101 % of control | [18] 107 % of control | [19] 114 % of control

O=c1oc2nc(-c3ccccc3)[nH]c(=O)c2c2c1CCCC2
inactive: dose: 15.0 mg/kg/injection, schedule: Q01DX005 (ip), vehicle: Klucel (hydroxypropylcellulose) (HPC) 92 % of control | dose: 30.0 mg/kg/injection, schedule: Q01DX005 (ip), vehicle: Klucel (hydroxypropylcellulose) (HPC) 86 % of control

C(=N\Nc1nnc2c(n1)[nH]c1ccccc12)/c1ccccc1
inactive: [5] 89 % of control | [6] 90 % of control | [7] 98 % of control

C[C@@H]1[C@H](c2ccccc2)OCN1C
inactive: dose: 12.5 mg/kg/injection, schedule: Q01DX005 (ip), vehicle: saline 101 % of control and 93 % of control | dose: 25.0 mg/kg/injection, schedule: Q01DX005 (ip), vehicle: saline 101 % of control | dose: 30.0 mg/kg/injection, schedule: Q01DX005 (ip), vehicle: saline 111 % of control | [9] 109 % of control and 124 % of control | dose: 60.0 mg/kg/injection, schedule: Q01DX005 (ip), vehicle: saline 118 % of control | [10] 111 % of control and 120 % of control | [11] 109 % of control

Cc1nsnc1CCO
inactive: dose: 100.0 mg/kg/injection, schedule: Q04DX002 (ip), vehicle: saline 102 % of control | dose: 200.0 mg/kg/injection, schedule: Q04DX002 (ip), vehicle: saline 104 % of control | dose: 400.0 mg/kg/injection, schedule: Q04DX002 (ip), vehicle: saline 99 % of control
